Measurements: patent publication US20040241243A1, “Angiogenesis promotion by prostaglandin compositions and methods” (NexMed (Holdings) Inc., priority 2003, published 2004)

Tests used:
endothelial cells = details: in vitro; cited from earlier work
EP2 receptor = EP2 receptor (Mus musculus, UniProt Q62053); details: read-out: affinity for the EP2 receptor; cited from earlier work
[1] = three months intracavernous injections three times a week; cited from earlier work
[2] = three months intracavernous injections three times a week; patients completing treatment; cited from earlier work
[3] = test system: segments of rat iliac arteries; assay: microvascular outgrowth from rat iliac artery ringlets cultured in Matrigel; format: cell-based, Sprague-Dawley rats
Experimental: Each sample was placed on a reduced-growth factor Matrigel coated coverglass slide in a culture dish filled with serum-free medium. […] The cultures were incubated at 37° C. in a humidified atmosphere with 5% CO2. Digital photographs were taken of growth after 96 hours.
Growth Factor Reduced Matrigel (Passaniti, A., et al., Lab. Invest. 1992 67:518-528) was purchased from Becton Dickinson (Mountain View, Calif.). Cell culture grade PGE1 was purchased from Sigma Chemical. (St. Louis, Mo.). RPIM-1640 and other cell culture reagents were purchased from GIBCO Invitrogen Corp. (Grand Island, N.Y.).
Male Sprague-Dawley rats, two-months old, were used in this study. All animal care, treatments, and procedures were approved by the institutional Committee on Animal Research. The rats were sacrificed by intraperitoneal injection of sodium pentobarbital (50 mg/kg) followed by bilateral thoracotomy and the removal of segments of iliac arteries.
The iliac artery segments isolated from Sprague-Dawley rats were sectioned into ringlets and cultured attached to Matrigel-coated glass coverslips. The coverslips were used as the supporting platform to facilitate samples processing for histological staining and examination. Coverslips were coated as follows. Growth Factor Reduced Matrigel (Becton Dickinson, Mountain View, Calif.) was diluted 3-fold in serum-free RPMI-1640 in a 35-mm culture dish on ice. The diluted Matrigel was then spread onto cold sterilized glass coverslips using a sterilized glass slide as spreader. The coated coverslips were placed in 35-mm culture dishes and incubated at 37° C. for 1 hr to allow the Matrigel to solidify. Iliac artery ringlets were placed on top of Matrigel coated coverslips and covered by 50 μl cold Growth Factor Reduced Matrigel which had been kept in liquid form. After a 5-min incubation at 37° C. to allow the Matrigel to polymerize, 3 ml of serum-free RPMI 1640 medium supplemented with 1×penicillin-streptomycin-fangizone (Cell Culture Facility, University of California, San Francisco) was added. […] The iliac artery ringlet cultures were maintained at 37 ° C. in a humidified atmosphere with 5% CO2.
After 96 hours of incubation, the iliac artery ringlet cultures were examined. Microvascular growths were photographed using a professional DCS-420 digital camera (Eastman Kodak, Rochester, N.Y.) connected to an Olympus microscope and an Apple Macintosh PowerMac computer. All samples were photographed and the images were stored for later analysis. The digital images were analyzed using ChemiImager 4000 software (Alpha Innotech Corporation, San Leandro, Calif.) to determine the maximum length of the microvascular growths.
Statistical analysis was performed using computer software from Primer of Biostatistics, 3rd ed. (Glantz SA, McGraw-Hill, Inc. New York, 1992). The data involving different time points were first analyzed by one-way analysis of variance (ANOVA). If ANOVA indicated a significant difference, the Student-Neuman-Keuls test was used to perform pair-wise comparisons.

VEGF = details: systemic treatment of patients; cited from earlier work

Chain of EP2 receptor (Q62053 whole entry): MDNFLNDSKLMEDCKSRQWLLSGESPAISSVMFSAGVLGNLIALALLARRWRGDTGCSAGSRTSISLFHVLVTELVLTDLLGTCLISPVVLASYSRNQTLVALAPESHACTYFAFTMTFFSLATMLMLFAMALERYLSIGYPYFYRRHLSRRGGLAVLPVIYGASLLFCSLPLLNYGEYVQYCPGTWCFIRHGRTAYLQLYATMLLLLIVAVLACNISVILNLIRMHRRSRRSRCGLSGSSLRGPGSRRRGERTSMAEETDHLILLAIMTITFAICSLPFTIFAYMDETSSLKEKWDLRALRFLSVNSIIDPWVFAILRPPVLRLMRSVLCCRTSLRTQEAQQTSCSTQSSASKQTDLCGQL

Row | Molecule | effect on VEGF (endothelial cells) | Kd (EP2 receptor) | recovery of spontaneous erections [1] | responsiveness to oral sildenafil therapy [1] | patients reporting recovery of spontaneous erections sufficient for intercourse [2] | peak microvascular growth ([3]; 1 μM PGE1) | Length of longest microvascular growth ([3]; 1 μM PGE1, 96 hours) | Length of longest microvascular growth ([3]; 10 μM PGE1, 96 hours) | Length of longest microvascular growth ([3]; 20 μM PGE1, 96 hours) | Length of longest microvascular growth ([3]; 30 μM PGE1, 96 hours) | Length of longest microvascular growth ([3]; 60 μM PGE1, 96 hours) | effect on microvascular outgrowth ([3]; primary cultures of rat iliac artery segments) | effect on VEGF expression (VEGF)
1 | CCCCC[C@H](O)/C=C/[C@H]1[C@H](O)CC(=O)[C@@H]1C/C=C\CCCC(=O)O [PGE2, prostaglandin E2] | up-regulate VEGF | ~10 nM |  |  |  |  |  |  |  |  |  |  | 
2 | Prostaglandin E1 [PGE1] |  |  | more likely to recover spontaneous erections | more likely to be responsive to oral sildenafil therapy | 8 of the 12 | 680 micrometers | 680 μm | 360 μm | 100 μm | 30 μm | 5 μm | enhance microvascular outgrowth | up-regulate expression of VEGF
